According to patent US7425577B2, “Lipase-colipase inhibitor” (Forskarpatent 1 SYD AB, priority 2003, dated 2008):
Entries after “also recorded” stand apart in the source; their conditions may differ.

Tests used:
[1] = target: T1, lipase (Homo sapiens, UniProt P04118+P16233); experiment: Inhibition of lipase activity in vitro assay, tributyrin or Intralipid as substrates (FIGS. 1A and 1B); type: biochemical; settings: for Inhibition of lipase activity in vitro: tributyrin or intralipid as substrates
T1 sequence (P16233 17-465): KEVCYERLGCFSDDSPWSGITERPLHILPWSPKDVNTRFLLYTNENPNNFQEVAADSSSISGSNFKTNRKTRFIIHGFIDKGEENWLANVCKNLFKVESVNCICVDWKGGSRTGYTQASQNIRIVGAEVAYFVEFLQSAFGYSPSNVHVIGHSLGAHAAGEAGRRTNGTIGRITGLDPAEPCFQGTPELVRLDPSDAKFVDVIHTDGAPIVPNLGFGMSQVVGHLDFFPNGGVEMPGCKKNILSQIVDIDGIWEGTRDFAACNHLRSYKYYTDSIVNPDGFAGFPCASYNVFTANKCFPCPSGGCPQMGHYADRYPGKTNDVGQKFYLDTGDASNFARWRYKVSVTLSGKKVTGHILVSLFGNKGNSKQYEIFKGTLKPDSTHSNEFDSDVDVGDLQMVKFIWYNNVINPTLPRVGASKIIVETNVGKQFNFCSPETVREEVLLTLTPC
T1 sequence (P04118 23-112): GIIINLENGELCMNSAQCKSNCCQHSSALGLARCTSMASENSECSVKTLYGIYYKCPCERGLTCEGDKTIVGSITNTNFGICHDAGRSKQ

[2] = Blood lipids analysis after 5 days of oral administration; type: in vivo, female Sprague-Dawley rats; settings: 50 μl orally for 5 days
Description: Female female Sprague-Dawley rats were used for all experiments. Rats were housed in a temperature-controlled room (22±1° C.) under a 12-h light (6:00-18:00)/12-h cycle, given free access to water, and fed an libitum on a standard chow unless otherwise stated for a high-fat diet experiment. All procedures using animals were approved by the local ethics committee and followed the guidelines for experiments in animals (European Economic Community Council Directive 86/609/EEC).
Blood was drawn in rats from the intra-orbital bullar plexus under anaesthesia and collected in ice-cold tubes. Serum was obtained by centrifugation at 3000 g for 15 min at 4° C. […] Plasma triglycerides was determined with an Sigma diagnostics kit. Plasma fatty acids were measured by NEFAC kit (Wako chemicals GmbH, Neuss, Germany). Plasma PYY (3-36) and leptin were measured with the PYY Enzyme Immunossay kit and leptin Enzyme Immunossay (Phoenix Pharmaceuticals, USA)

[3] = target: T2, Lipase and colipase, purified from human pancreatic gland (Homo sapiens, UniProt P04118+P16233); experiment: Determination of lipolysis by colipase/lipase (pH-stat, tributyrine emulsion with NaTDC); type: biochemical
T2 construct: Lipase, Purified from Human Pancreatic Gland; Colipase, Purified from Human Pancreatic Gland; from tissue; host or cells: human pancreatic gland
T2 sequence (P16233 17-465): T1 sequence (P16233 17-465)
T2 sequence (P04118 23-112): T1 sequence (P04118 23-112)
Excerpt: Determination of Lipolysis by Colipase/Lipase
The most important enzyme in the gastro-intestinal tract being responsible for the hydrolysis of lipids/fats in the gastro-intestinal tract is lipase, pancreatic lipase, together with its protein cofactor colipase. These are two proteins, which are secreted from the pancreatic gland. […] The colipase binds to lipase in a molar 1:1 complex and then moves the complex to the triglyceride surface. In the binding between lipase and colipase hydrogen bonds are present, between arg38 of the colipase and ser343 of the lipase and from glu15 of the colipase and the asn241 of the lipase molecules. In the binding of colipase to the substrate (the lipids/fat) there are both hydrophobic bonds as well as ion-ion bonds present. By an isolated lack of colipase it has been shown that colipase has a decisive role for the lipolysis in the gastro-intestinal tract of humans. Pure lipase and colipase have been produced in accordance with the following.
Lipase, Purified from Human Pancreatic Gland
Colipase, Purified from Human Pancreatic Gland
0.5 ml of tributyrine is mixed with 15 ml of a buffer containing 1 mM CaCl2, 150 mM NaCl, 2 mM tris-maleate, pH 7.0 and 4 mM NaTDC (sodium taurodeoxycholate). An emulsion is obtained by continuous stirring. pH is titrated by means of a pH-state, where 0.1 N NaOH is added automatically to keep an constant pH. 10 μl of lipase is added from a stock solution containing 70 units of lipase/ml, followed by 10 μl of colipase from a stock solution containing 1 mg colipase/ml. An activity is registered which is determined to be 100%. An addition of an inhibitor is then made. A new assay is used for every concentration, prepared in the same way. The inhibition is registered as percentage of control. A dose-response plot is obtained for the compounds having an inhibiting ability.

[4] = Acute effect on blood lipids: single dose plus Intralipid in overnight-fasted rats; type: in vivo, female Sprague-Dawley rats; settings: single dose 200 μl plus 1 ml Intralipid (200 mg); 0, 30, 60, 120 and 180 min
Description: Blood was drawn in rats from the intra-orbital bullar plexus under anaesthesia and collected in ice-cold tubes. Serum was obtained by centrifugation at 3000 g for 15 min at 4° C. For acute effect of dimethylaminoethyl dodecyl ether on blood lipids, overnight-fasted rats were given 200 μl dimethylaminoethyl dodecyl ether plus 1 ml (200 mg) Intralipids orally through a gastric gavage and blood collected at 0, 30, 60, 120 and 180 min. Plasma triglycerides was determined with an Sigma diagnostics kit. Plasma fatty acids were measured by NEFAC kit (Wako chemicals GmbH, Neuss, Germany). Plasma PYY (3-36) and leptin were measured with the PYY Enzyme Immunossay kit and leptin Enzyme Immunossay (Phoenix Pharmaceuticals, USA)

[5] = system: Pancreatic lipase; experiment: Pancreatic lipase activity and protein expression in pancreas after 5 days of treatment; type: in vivo, rat; settings: pancreas of rats given 50 μl for 5 days by gastric gavage
Description: At the end of experiment, rats were killed and the pancreas collected for assay of lipase activity and protein expression. Lipase activity was determined with pH stat titration (Mettle Components DK 10, DK 11, DV11) using tributyrin dispersed in bile salt as substrate (Borgström & Erlanson). Lipase expression was analysed by western blot.
Pancreas was homogenized in 0.5% digitonin buffer containing 10 mM sodium phosphate (pH6.0) and 1 mini complete tablet on ice. After centrifuge at 14000 g, 4° C. for 10 min, the supernatant was collected and heating at 65° C., 15 min for inactivate endogenous lipase. The protein amount was measured by BCA method. Equal amount (50 μg) protein was load on 10% SDS-polyacrylamide gels, transferred to the nitrocellulose membranes and then incubated with anti-lipase antibody in the dilution 1:1000 at 4° C. overnight. Pancreatic lipase protein was detected using a horseradish peroxidase-conjugated donkey anti-rabbit antibody (1:8000) for 60 min at room temperature followed with an enhanced chemiluminescence (Pierce).

- Dose at which the maximum inhibition of lipase activity was seen ([1]; Intralipid as substrate): 80 µmol
- Dose at which the maximum inhibition of lipase activity was seen ([1]; tributyrin as substrate): 40 µmol
- Inhibition of lipase activity in vitro [1]: completely inhibited lipase activity
- Activity Inhibitor ([3]; amount of inhibitor 0.97 μmol, control activity 0.313): 0.237 µmol/min
- Activity Inhibitor ([3]; amount of inhibitor 1.95 μmol, control activity 0.301): 0.204 µmol/min
- Activity Inhibitor ([3]; amount of inhibitor 3.89 μmol, control activity 0.308): 0.127 µmol/min
- Activity Inhibitor ([3]; amount of inhibitor 6.81 μmol, control activity 0.319): 0.069 µmol/min
- Activity Inhibitor ([3]; amount of inhibitor 9.73 μmol, control activity 0.327): 0.033 µmol/min
- Activity Inhibitor ([3]; amount of inhibitor 14.59 μmol, control activity 0.328): 0.013 µmol/min
- Activity Inhibitor ([3]; amount of inhibitor 19.46 μmol, control activity 0.332): 0 µmol/min
Compound: CCCCCCCCCCCCOCCN(C)C [dimethylaminoethyl dodecyl ether]
- Inhibition of lipase activity in vitro ([1]; listed as Dimethylaminoethyl dodecyl ether): inhibited lipase activity in a dose-depended manner
- Serum (plasma) cholesterol level vs vehicle [2]: no effect; also recorded: no difference
- Serum fatty acids level vs vehicle [2]: decreased serum triglyceride and fatty acids, but this was not statistic significance; also recorded: decreased
- Serum triglyceride level vs vehicle [2]: decreased serum triglyceride and fatty acids, but this was not statistic significance; also recorded: decreased
- Serum (plasma) fatty acids vs Intralipid alone [4]: significantly reduced; also recorded: decreased
- Serum (plasma) triglycerides vs Intralipid alone [4]: significantly reduced
- Pancreatic lipase activity vs controls [5]: not changed
- Pancreatic lipase protein expression vs controls (western blot) [5]: slightly reduced; also recorded: reduced
